In PubChem BioAssay (NCI):
Several values for one entry are separate records, joined by “and”; a condition that tells them apart may be missing. Equal entries are not always repeated.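 Five compound concentrations were applied to cells in 96-well plates for 48 hours; endpoints were derived by simple linear interpolation of the resulting dose-response curve. Abbreviation: GI50, concentration required for 50% inhibition of growth. TGI denotes the concentration required for complete inhibition of growth.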

Experiments:
Assay in all cases: NCI anticancer screen, dose series, 48 h
[1] = tested on: MDA-N
[2] = tested on: DMS 273 small cell lung
[3] = tested on: LXFL 529 NSCLC
[4] = tested on: XF 498 CNS
[5] = tested on: DLD-1 colon
[6] = tested on: RXF-631 renal
[7] = tested on: HOP-18 NSCLC
[8] = tested on: KM20L2 colon

Structure (SMILES)	TGI [1]	TGI [2]	TGI [3]	TGI [4]	TGI [5]	TGI [7]	TGI [8]	further results
OC(C1=C/C(=C\c2ccncc2)c2ccccc21)c1ccncc1 (centres undefined)	30.4 µM	–	–	–	–	–	–	–
c1ccc(C(=NNc2nc3ccccc3o2)c2ccccn2)nc1	25.9 µM	–	–	–	–	–	–	–
Cc1cc(O)c(C(=O)CC2(O)C(=O)Nc3c(Cl)cc(Cl)cc32)c(=O)o1 (centres undefined)	–	> 100 µM	> 100 µM	> 100 µM	> 100 µM	> 100 µM	> 100 µM	TGI [6]: > 100 µM
S=c1nc(Oc2ccc(Cl)c(Cl)c2)[nH]c(=S)[nH]1	> 100 µM	50 µM	> 100 µM	65.6 µM	88.4 µM	> 100 µM	> 100 µM	TGI [6]: 32.8 µM
Clc1ccc(-n2nnc(C3=NCCCN3)c2-c2ccccc2)cc1	–	> 100 µM	> 100 µM	> 100 µM	> 100 µM	> 100 µM	> 100 µM	–
CC(=O)NC1=C(Nc2ccc(C)cc2)C(=O)c2ccccc2C1=O	–	61 µM	> 75 µM	73.1 µM	> 75 µM	28.5 µM	> 75 µM	–
C=C(Cl)COC(=O)Nc1cccc(Cl)c1	> 100 µM	–	–	–	–	–	–	–
N#CCc1ccc(C(C#N)/C(CCCC(=O)Nc2cccc([N+](=O)[O-])c2)=N\NC(=O)NN)cc1 (centres undefined)	–	> 100 µM	> 100 µM	–	> 100 µM	> 100 µM	> 100 µM	–
CC(=O)OCC1OC(OC2CC3C(C)(C)C(OC(C)=O)CC[C@]3(C)C3CCC45CC4(CC[C@H]5C(C)CC(O)[C@@H](O)C(C)(C)O)[C@]23C)C(O)C(O)C1O (some centres undefined)	–	13.8 µM and 20.3 µM	11.3 µM and 16.2 µM	33.9 µM	13.7 µM and 23.2 µM	15 µM and 17.3 µM	14.4 µM and 21.6 µM	GI50 [3]: 4.65 µM; GI50 [5]: 10.4 µM; GI50 [7]: 5.43 µM
COc1ccc(/C=C\c2cc(OC)c(OC)c(OC)c2)cc1OC(=O)C(N)CCC(=O)O (centres undefined)	–	–	–	0.0491 µM	> 100 µM	–	9.55 µM	GI50 [1]: 0.000204 µM; GI50 [8]: 1.51 µM
O=C(CNC(=O)OCc1ccccc1)Oc1ccccc1	–	> 100 µM	> 100 µM	> 100 µM	> 100 µM	> 100 µM	> 100 µM	–
C1CNCCNCCNCCN1	–	> 100 µM	> 100 µM	–	> 100 µM	> 100 µM	> 100 µM	–
c1cc2c(cc1C(N1CCNCC1)N1CCNCC1)OCO2	> 100 µM	–	–	–	–	–	–	–
NCCCN(CCCN)CCCNCc1c2ccccc2c(CNCCCN(CCCN)CCCN)c2ccccc12	–	17 µM	22.6 µM	38.1 µM	28.8 µM	20.7 µM	47.8 µM	TGI [6]: 43.7 µM
CCCCCCCCCCC(C)CCCCCCC(=O)OCC(COP(=O)([O-])OCC[N+](C)(C)C)OC(=O)CCCCCCC(C)CCCCCCCCCC (centres undefined)	–	> 100 µM	> 100 µM	–	> 100 µM	> 100 µM	> 100 µM	TGI [6]: > 100 µM
COc1ccc(C(=O)C(c2ccc(OC)cc2)C2(O)C(=O)Nc3c(C)cc(Cl)cc32)cc1 (centres undefined)	–	> 100 µM	> 100 µM	–	> 100 µM	–	> 100 µM	TGI [6]: > 100 µM
Cc1cccc(C)c1NC(=O)CCCC(=O)CC(=O)/C=C/c1ccccc1	–	> 100 µM	> 100 µM	> 100 µM	> 100 µM	> 100 µM	> 100 µM	TGI [6]: > 100 µM
CN(C)CC(/C(Cc1ccccc1)=N\NC(=O)c1ccncc1)c1ccccc1 (centres undefined)	–	–	> 100 µM	> 100 µM	> 100 µM	–	92.3 µM	TGI [6]: > 100 µM
CC1Cc2c(N)nc(NN)nc2NC1=O (centres undefined)	–	> 100 µM	–	> 100 µM	> 100 µM	> 100 µM	> 100 µM	–
S=c1[nH]c(=S)c2sc(=S)n(-c3ccccc3)c2[nH]1	–	> 100 µM	> 100 µM	> 100 µM	> 100 µM	> 100 µM	> 100 µM	–
CCOC(=O)/C(=C\c1ccc(OCc2ccccc2)c(OC)c1)C(=O)c1ccccc1	–	–	–	32.3 µM	–	–	34.3 µM	–
Cc1cccc(C)c1NC(=O)/C(Cl)=C(/Cl)C(=O)O	36.8 µM	35.9 µM	15.2 µM	28.6 µM	17.8 µM	38.2 µM	20.8 µM	–

Structure (SMILES)	TGI [1]	TGI [2]	TGI [3]	TGI [4]	TGI [5]	TGI [7]	TGI [8]	further results
COC(=O)/C=C(C)/C=C/c1cc(C(C)=O)c(C)o1	–	–	> 100 µM	> 100 µM	> 100 µM	> 100 µM	> 100 µM	–
O=C1/C(=C/c2ccc(O)c([N+](=O)[O-])c2)CCC/C1=C\c1ccc(O)c([N+](=O)[O-])c1	19.9 µM and > 100 µM	–	–	–	–	–	–	GI50 [1]: 25.9 µM
C[C@]12CC[C@H](O)CC1=CC[C@@H]1C2CC[C@]2(C)c3nn(-c4ccc(F)cc4)nc3CC12 (some centres undefined)	> 100 µM	–	–	–	–	–	–	–
COc1ccc2c([nH]c3cc(O)c(C)cc32)c1C=O	–	> 25 µM	> 25 µM	> 25 µM	> 25 µM	–	> 25 µM	–
O=C1CCCCCCCCCCC(=O)C2CCOCCOCCOCCC1Cc1cccc(n1)C2	–	> 100 µM	> 100 µM	> 100 µM	> 100 µM	–	> 100 µM	TGI [6]: > 100 µM
CC1(CO)OC1COCc1ccccc1 (centres undefined)	–	> 100 µM	> 100 µM	> 100 µM	> 100 µM	–	> 100 µM	TGI [6]: > 100 µM
N#Cc1ccccc1NC(=O)/C(=N\NC(=O)c1ccncc1)C(c1cnc2ccc([N+](=O)[O-])cc2n1)[N+](=O)[O-] (centres undefined)	> 100 µM	–	–	–	–	–	–	–
CN(C)CCCN=C(N)N	> 100 µM	–	–	–	–	–	–	–
C=CC[C@H]1C[C@@]2(C)OC[C@H](C(C)C)N2C1=O	–	> 100 µM	–	> 100 µM	–	> 100 µM	> 100 µM	–
N/N=C(\CC1OC(=O)c2ccccc21)c1ccco1 (centres undefined)	–	> 100 µM	> 100 µM	–	> 100 µM	0.343 µM	> 100 µM	–
COc1ccc(C2S/C(=C\c3cc(OC)c(OC)c(OC)c3)C(=O)N2NC(=O)Cc2ccccc2)cc1 (centres undefined)	–	> 100 µM	> 100 µM	–	> 100 µM	> 100 µM	–	–
COC1/C=C\C=C(/C)C(=O)Nc2cc3nc4ccc(Br)cc4oc-3c(c2=O)CC(C)CC(OC)C(O)C(C)/C=C(\C)C1OC(N)=O (centres undefined)	1.27 µM	4.19 µM	9.42 µM	0.466 µM	8.29 µM	17.3 µM	3.65 µM	GI50 [1]: 0.0124 µM
CCOc1cc2c(cnc3c4cc(OC)c(OC)cc4ccc23)cc1OC	–	–	> 100 µM	> 100 µM	> 100 µM	–	> 100 µM	–
Cc1ncc([N+](=O)[O-])n1CCNS(=O)(=O)CCCn1ccnc1[N+](=O)[O-]	> 100 µM	–	–	–	–	–	–	–
CC(=O)OCSc1ncnc2c1ncn2CN1CCOCC1	–	> 100 µM	> 100 µM	–	> 100 µM	> 100 µM	> 100 µM	–
OCC(O)C(O)C(O)C1SC(c2ccccc2)=NN1c1ccccc1 (centres undefined)	> 100 µM	> 100 µM	> 100 µM	> 78.1 µM	> 100 µM	> 100 µM	> 100 µM	TGI [6]: > 100 µM
CC1(C)COCN1COC1CCCCC1	> 100 µM	–	–	–	–	–	–	–
c1nc2cscc2c2cscc12	–	> 100 µM	> 100 µM	> 100 µM	–	–	–	–
O=[N+]([O-])c1ccc(Sc2c3ccccc3nc3ccccc23)cc1	–	–	> 100 µM	> 100 µM	> 100 µM	> 100 µM	> 100 µM	TGI [6]: > 100 µM
FC(F)(F)c1cccc(COCCN2CCN(Cc3cccc(C(F)(F)F)c3)CC2)c1	34.4 µM	–	–	–	–	–	–	–
CC(C)=CC(=O)Oc1ccc([N+](=O)[O-])cc1	–	> 100 µM	> 100 µM	> 100 µM	> 100 µM	> 100 µM	> 100 µM	–
